Experimental data published in patent publication US9309250B2, “Substituted pyrrolo[2,3-b]pyrazines as ATR kinase inhibitors” (Vertex Pharmaceuticals Incorporated, priority 2011, dated 2016).

target: T1, full-length ATR (Homo sapiens, UniProt Q13535); assay: ATR Inhibition Assay (radioactive-phosphate incorporation); format: biochemical; conditions: Ki(app); 5 nM full-length ATR, 10 μM ATP, 800 μM target peptide, 25° C.
T1 construct: Assays were carried out at 25° C. in the presence of 5 nM full-length ATR
T1 sequence (Q13535 whole entry): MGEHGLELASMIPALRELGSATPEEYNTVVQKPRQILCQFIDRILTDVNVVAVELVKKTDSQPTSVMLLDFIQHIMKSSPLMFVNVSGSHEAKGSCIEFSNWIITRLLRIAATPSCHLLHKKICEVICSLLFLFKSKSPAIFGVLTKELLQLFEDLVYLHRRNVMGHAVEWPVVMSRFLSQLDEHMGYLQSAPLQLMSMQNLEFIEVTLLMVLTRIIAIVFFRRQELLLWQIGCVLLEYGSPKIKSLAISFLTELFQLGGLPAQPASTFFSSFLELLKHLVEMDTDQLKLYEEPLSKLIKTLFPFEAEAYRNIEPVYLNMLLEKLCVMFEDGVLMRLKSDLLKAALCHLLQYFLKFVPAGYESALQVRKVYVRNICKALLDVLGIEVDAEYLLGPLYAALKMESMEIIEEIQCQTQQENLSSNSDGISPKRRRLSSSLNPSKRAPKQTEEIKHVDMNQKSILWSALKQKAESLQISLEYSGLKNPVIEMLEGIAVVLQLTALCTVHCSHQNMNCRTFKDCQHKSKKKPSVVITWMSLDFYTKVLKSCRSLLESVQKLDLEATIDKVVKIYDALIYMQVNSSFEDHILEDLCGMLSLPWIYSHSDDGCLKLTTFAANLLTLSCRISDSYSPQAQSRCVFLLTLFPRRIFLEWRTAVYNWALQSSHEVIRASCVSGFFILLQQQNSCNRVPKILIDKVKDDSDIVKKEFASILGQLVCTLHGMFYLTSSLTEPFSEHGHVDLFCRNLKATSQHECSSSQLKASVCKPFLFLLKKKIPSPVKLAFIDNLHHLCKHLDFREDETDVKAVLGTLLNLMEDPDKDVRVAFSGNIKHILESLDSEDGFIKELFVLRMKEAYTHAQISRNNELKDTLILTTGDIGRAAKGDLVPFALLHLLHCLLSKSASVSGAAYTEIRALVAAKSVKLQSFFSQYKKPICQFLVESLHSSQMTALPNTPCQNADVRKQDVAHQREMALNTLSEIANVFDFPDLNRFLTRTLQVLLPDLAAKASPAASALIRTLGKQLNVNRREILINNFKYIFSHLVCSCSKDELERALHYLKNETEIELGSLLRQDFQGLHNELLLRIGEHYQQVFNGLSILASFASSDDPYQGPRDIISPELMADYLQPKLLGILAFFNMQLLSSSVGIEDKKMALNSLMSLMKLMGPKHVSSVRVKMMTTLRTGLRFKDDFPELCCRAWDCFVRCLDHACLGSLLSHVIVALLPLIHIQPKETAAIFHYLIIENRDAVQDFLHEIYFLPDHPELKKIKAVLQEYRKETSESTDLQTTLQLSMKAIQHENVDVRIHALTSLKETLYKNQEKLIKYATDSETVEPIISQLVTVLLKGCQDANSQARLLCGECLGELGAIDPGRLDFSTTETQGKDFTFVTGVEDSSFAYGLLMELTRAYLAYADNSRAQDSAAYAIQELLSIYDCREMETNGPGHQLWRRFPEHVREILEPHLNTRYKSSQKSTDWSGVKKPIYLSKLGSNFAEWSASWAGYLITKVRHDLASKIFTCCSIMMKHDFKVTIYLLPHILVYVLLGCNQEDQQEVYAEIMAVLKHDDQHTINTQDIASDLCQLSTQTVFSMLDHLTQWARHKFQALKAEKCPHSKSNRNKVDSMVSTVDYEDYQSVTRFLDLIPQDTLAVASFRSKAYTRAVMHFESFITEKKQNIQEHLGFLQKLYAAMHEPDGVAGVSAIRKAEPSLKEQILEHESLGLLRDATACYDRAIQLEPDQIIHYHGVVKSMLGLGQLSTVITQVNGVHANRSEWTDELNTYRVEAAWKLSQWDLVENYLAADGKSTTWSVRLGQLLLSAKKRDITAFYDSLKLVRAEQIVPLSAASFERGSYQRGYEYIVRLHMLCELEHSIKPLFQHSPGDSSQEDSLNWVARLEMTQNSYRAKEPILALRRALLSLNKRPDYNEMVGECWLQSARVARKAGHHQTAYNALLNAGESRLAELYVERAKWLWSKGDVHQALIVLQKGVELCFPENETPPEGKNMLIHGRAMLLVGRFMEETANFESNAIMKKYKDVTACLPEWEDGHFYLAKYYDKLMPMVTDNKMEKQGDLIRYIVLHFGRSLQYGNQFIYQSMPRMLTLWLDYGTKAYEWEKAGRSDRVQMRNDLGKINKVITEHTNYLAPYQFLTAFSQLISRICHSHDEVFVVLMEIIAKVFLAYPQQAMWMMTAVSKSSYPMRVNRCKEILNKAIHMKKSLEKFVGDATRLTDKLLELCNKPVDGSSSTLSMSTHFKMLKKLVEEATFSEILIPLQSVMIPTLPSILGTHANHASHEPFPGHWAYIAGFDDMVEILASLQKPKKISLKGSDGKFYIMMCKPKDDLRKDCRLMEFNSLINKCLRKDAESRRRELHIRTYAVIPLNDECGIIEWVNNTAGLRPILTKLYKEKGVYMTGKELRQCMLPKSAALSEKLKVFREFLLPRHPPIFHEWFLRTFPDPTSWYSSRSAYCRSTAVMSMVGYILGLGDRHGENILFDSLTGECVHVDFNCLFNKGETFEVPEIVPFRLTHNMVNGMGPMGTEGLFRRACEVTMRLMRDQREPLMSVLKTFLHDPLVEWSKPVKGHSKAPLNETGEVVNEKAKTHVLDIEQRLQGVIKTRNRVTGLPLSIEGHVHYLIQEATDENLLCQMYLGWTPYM
Protocol: Compounds were screened for their ability to inhibit ATR kinase using a radioactive-phosphate incorporation assay. Assays were carried out in a mixture of 50 mM Tris/HCl (pH 7.5), 10 mM MgCl2 and 1 mM DTT. Final substrate concentrations were 10 μM [γ-33P]ATP (3mCi 33P ATP/mmol ATP, Perkin Elmer) and 800 μM target peptide (ASELPASQPQPFSAKKK) (SEQ. ID. NO: 1).
Assays were carried out at 25° C. in the presence of 5 nM full-length ATR. An assay stock buffer solution was prepared containing all of the reagents listed above, with the exception of ATP and the test compound of interest. 13.5 μL of the stock solution was placed in a 96 well plate followed by addition of 2 μL of DMSO stock containing serial dilutions of the test compound (typically starting from a final concentration of 15 μM with 3-fold serial dilutions) in duplicate (final DMSO concentration 7%). The plate was pre-incubated for 10 minutes at 25° C. and the reaction initiated by addition of 15 μL [γ-33P]ATP (final concentration 10 μM).
The reaction was stopped after […] by the addition of 30 μL 0.1M phosphoric acid containing 2 mM ATP. A multiscreen phosphocellulose filter 96-well plate (Millipore, Cat no. MAPHN0B50) was pretreated with 100 μL 0.2M phosphoric acid prior to the addition of 45 μL of the stopped assay mixture. The plate was washed with 5×200 μL 0.2M phosphoric acid. After drying, 100 μL Optiphase ‘SuperMix’ liquid scintillation cocktail (Perkin Elmer) was added to the well prior to scintillation counting (1450 Microbeta Liquid Scintillation Counter, Wallac).
After removing mean background values for all of the data points, Ki(app) data were calculated from non-linear regression analysis of the initial rate data using the Prism software package (GraphPad Prism version 3.0cx for Macintosh, GraphPad Software, San Diego Calif., USA).
Below is a chart showing the ATR Inhibition Ki values of compounds of the disclosure.

| Compound | Ki [nM] |
| --- | --- |
| CC(C)S(=O)(=O)c1ccc(-c2cnc3[nH]cc(N4Cc5cc(N(C)C6CCNCC6)ccc5C4=O)c3n2)cc1 [Compound I-31, 2-(2-(4-(isopropylsulfonyl)phenyl)-5H-pyrrolo[2,3-b]pyrazin-7-yl)-5-(methyl(piperidin-4-yl)amino)isoindolin-1-one] | ≤ 50 |
| CC(C)S(=O)(=O)c1ccc(-c2cnc3[nH]cc(N4Cc5cc(NCCN6CCOCC6)ccc5C4=O)c3n2)cc1 [Compound I-32, 2-(2-(4-(isopropylsulfonyl)phenyl)-5H-pyrrolo[2,3-b]pyrazin-7-yl)-5-((2-morpholinoethyl)amino)isoindolin-1-one] | ≤ 50 |
| CC(C)S(=O)(=O)c1ccc(-c2cnc3[nH]cc(N4Cc5cc(NCCN)ccc5C4=O)c3n2)cc1 [Compound I-34, 5-((2-aminoethyl)amino)-2-(2-(4-(isopropylsulfonyl)phenyl)-5H-pyrrolo[2,3-b]pyrazin-7-yl)isoindolin-1-one] | ≤ 50 |
| CC(C)S(=O)(=O)c1ccc(-c2cnc3[nH]cc(N4Cc5cc(N(C)CCCN(C)C)ccc5C4=O)c3n2)cc1 [Compound I-36, 5-((3-(dimethylamino)propyl)(methyl)amino)-2-(2-(4-(isopropylsulfonyl)phenyl)-5H-pyrrolo[2,3-b]pyrazin-7-yl)isoindolin-1-one] | ≤ 50 |
| CC(C)S(=O)(=O)c1ccc(-c2cnc3[nH]cc(N4Cc5cc(NCC6CCCNC6)ccc5C4=O)c3n2)cc1 (stereo not shown) [Compound I-40, 2-(2-(4-(isopropylsulfonyl)phenyl)-5H-pyrrolo[2,3-b]pyrazin-7-yl)-5-((piperidin-3-ylmethyl)amino)isoindolin-1-one] | ≤ 50 |
| CC(C)S(=O)(=O)c1ccc(-c2cnc3[nH]cc(N4Cc5cc(-c6ccn[nH]6)ccc5C4=O)c3n2)cc1 [Compound I-43, 2-(2-(4-(isopropylsulfonyl)phenyl)-5H-pyrrolo[2,3-b]pyrazin-7-yl)-5-(1H-pyrazol-5-yl)isoindolin-1-one] | ≤ 50 |
| CNc1cccc2c1C(=O)N(c1c[nH]c3ncc(-c4ccc(S(=O)(=O)C(C)C)cc4)nc13)C2 [Compound I-44, 2-(2-(4-(isopropylsulfonyl)phenyl)-5H-pyrrolo[2,3-b]pyrazin-7-yl)-7-(methylamino)isoindolin-1-one] | 50 to 100 |
| CC(C)S(=O)(=O)c1ccc(-c2cnc3[nH]cc(N4Cc5cccc(N(C)C)c5C4=O)c3n2)cc1 [Compound I-45, 7-(dimethylamino)-2-(2-(4-(isopropylsulfonyl)phenyl)-5H-pyrrolo[2,3-b]pyrazin-7-yl)isoindolin-1-one] | ≤ 50 |
| CC(C)S(=O)(=O)c1ccc(-c2cnc3[nH]cc(N4Cc5ccc(OCCN(C)C)cc5C4=O)c3n2)cc1 [Compound I-46, 6-(2-(dimethylamino)ethoxy)-2-(2-(4-(isopropylsulfonyl)phenyl)-5H-pyrrolo[2,3-b]pyrazin-7-yl)isoindolin-1-one] | ≤ 50 |
| CC(C)S(=O)(=O)c1ccc(-c2cnc3[nH]cc(N4Cc5cc(OCCN(C)C)ccc5C4=O)c3n2)cc1 [Compound I-47, 5-(2-(dimethylamino)ethoxy)-2-(2-(4-(isopropylsulfonyl)phenyl)-5H-pyrrolo[2,3-b]pyrazin-7-yl)isoindolin-1-one] | ≤ 50 |
| CC(C)S(=O)(=O)c1ccc(-c2cnc3[nH]cc(N4C(=O)c5ccccc5C4CCO)c3n2)cc1 (stereo not shown) [Compound I-48, 3-(2-hydroxyethyl)-2-(2-(4-(isopropylsulfonyl)phenyl)-5H-pyrrolo[2,3-b]pyrazin-7-yl)isoindolin-1-one] | ≤ 50 |

The next lines start with the values.

| Ki [nM] | Compound |
| --- | --- |
| ≤ 50 | CC(C)S(=O)(=O)c1ccc(-c2cnc3[nH]cc(N4Cc5cc(N6CCCC(N)C6)ccc5C4=O)c3n2)cc1 (stereo not shown) [Compound I-30, 5-(3-aminopiperidin-1-yl)-2-(2-(4-(isopropylsulfonyl)phenyl)-5H-pyrrolo[2,3-b]pyrazin-7-yl)isoindolin-1-one] |
| 50 to 100 | CC(C)S(=O)(=O)c1ccc(-c2cnc3[nH]cc(N4Cc5cc(N6CCC(CN)CC6)ccc5C4=O)c3n2)cc1 [Compound I-33, 5-(4-(aminomethyl)piperidin-1-yl)-2-(2-(4-(isopropylsulfonyl)phenyl)-5H-pyrrolo[2,3-b]pyrazin-7-yl)isoindolin-1-one] |
| ≤ 50 | CC(C)S(=O)(=O)c1ccc(-c2cnc3[nH]cc(N4Cc5cc(N6CC[C@@H](CN)C6)ccc5C4=O)c3n2)cc1 [Compound I-35, (S)-5-(3-(aminomethyl)pyrrolidin-1-yl)-2-(2-(4-(isopropylsulfonyl)phenyl)-5H-pyrrolo[2,3-b]pyrazin-7-yl)isoindolin-1-one] |
| ≤ 50 | CC(C)S(=O)(=O)c1ccc(-c2cnc3[nH]cc(N4Cc5cc(N6CCC(N(C)C)CC6)ccc5C4=O)c3n2)cc1 [Compound I-37, 5-(4-(dimethylamino)piperidin-1-yl)-2-(2-(4-(isopropylsulfonyl)phenyl)-5H-pyrrolo[2,3-b]pyrazin-7-yl)isoindolin-1-one] |
| ≤ 50 | CC(C)S(=O)(=O)c1ccc(-c2cnc3[nH]cc(N4Cc5cc(N6CCCNCC6)ccc5C4=O)c3n2)cc1 [Compound I-38, 5-(1,4-diazepan-1-yl)-2-(2-(4-(isopropylsulfonyl)phenyl)-5H-pyrrolo[2,3-b]pyrazin-7-yl)isoindolin-1-one] |
| ≤ 50 | CC(C)S(=O)(=O)c1ccc(-c2cnc3[nH]cc(N4Cc5cc(NC6CNC6)ccc5C4=O)c3n2)cc1 [Compound I-39, 5-(azetidin-3-ylamino)-2-(2-(4-(isopropylsulfonyl)phenyl)-5H-pyrrolo[2,3-b]pyrazin-7-yl)isoindolin-1-one] |
| ≤ 50 | CC(C)S(=O)(=O)c1ccc(-c2cnc3[nH]cc(N4Cc5cc(N6CC[C@H](N)C6)ccc5C4=O)c3n2)cc1 [Compound I-41, (S)-5-(3-aminopyrrolidin-1-yl)-2-(2-(4-(isopropylsulfonyl)phenyl)-5H-pyrrolo[2,3-b]pyrazin-7-yl)isoindolin-1-one] |
| ≤ 50 | CC(C)S(=O)(=O)c1ccc(-c2cnc3[nH]cc(N4Cc5cc(N6CC[C@@H](N)C6)ccc5C4=O)c3n2)cc1 [Compound I-42, (R)-5-(3-aminopyrrolidin-1-yl)-2-(2-(4-(isopropylsulfonyl)phenyl)-5H-pyrrolo[2,3-b]pyrazin-7-yl)isoindolin-1-one] |
